Measurements: US6573218B1, “Fused-benzene derivatives useful as herbicides” (Ishihara Sangyo Kaisha, Ltd., priority 1998, dated 2003)

What was measured:
Type in all cases: in vivo
[1] = test system: barnyardgrass (Echinochloa crus-galli, ECHCG); test: Pre-emerge greenhouse herbicide test; settings: 250 g ai/ha, 14 days after application, scale 0-100 (0 no damage, 100 complete death)
Text: (§1) A standard greenhouse herbicide activity screening system was used to evaluate the herbicidal efficacy and crop safety of these test compounds. Seven broadleaf weed species including redroot pigweed (Amaranthus retroflexus, AMARE), velvetleaf (Abutilon theophrasti, ABUTH), sicklepod (Cassia obtusifolia, CASOB), ivyleaf morningglory (Ipomoea hederacea, IPOHE), lambsquarters (Chenopodium album, CHEAL), common ragweed (Ambrosia artemisiifolia L., AMBEL), and cocklebur (Xanthium strumarium, XANST) were used as test species. Four grass weed species including green foxtail (Setaria viridis, SETVI), barnyardgrass (Echinochloa crus-galli, ECHCG), johnsongrass (Sorghum halepense, SORHA), and large crabgrass (Digitaria sanguinalis, DIGSA) were also used. In addition, three crop species, field corn (Zea mays L., var. Dekalb 527, CORN), soybean (Glycine max L., var. Pella 86, SOY), and upland rice (Ory0a sp., var.Tebonnet, RICE) were included.
(§2) All plants were grown in 10 cm square plastic pots which were filled with a sandy loam soil mix. For pre-emerge tests, seeds were planted one day prior to application of the test compounds. For post-emerge tests, seeds were planted 8-21 days prior to the test to allow emergence and good foliage development prior to application of the test substances. At the time of the post-emerge application, plants of all species were usually at the 2-3 leaf stage of development.
(§3) All test compounds were dissolved in acetone and applied to the test units in a volume of 187 l/ha. Test materials were applied at rates ranging from 15 g ai/ha to 1000 g ai/ha using a track sprayer equipped with a TJ8001E even flow flat fan spray nozzle. Plants were arranged on a shelf so that the top of the canopy (post-emerge) or top of the soil surface (pre-emerge) was 40-45 cm below the nozzle. Pressurized air was used to force the test solution through the nozzle as it was mechanically advanced over the top of all test plants/pots. This application simulates a typical commercial field herbicide application.
(§4) In the post-emerge test, a commercial non-ionic surfactant was also included (0.25% v/v) to enhance wetting of the leaf surfaces of target plants. Immediately after application, test units of the pre-emerge applications were watered at the soil surface to incorporate the test materials.
(§5) At 14 days after application of the test materials, phytotoxicity ratings were recorded. A rating scale of 0-100 was used as previously described in Research Methods in Weed Science, 2nd edition, B. Truelove, Ed., Southern Weed Science Society, Auburn University, Auburn, Ala., 1977. Briefly, “0” corresponds to no damage and “100” corresponds to complete death of all plants in the test unit. This scale was used both to determine efficacy against weed species and damage to crop species. Herbicide activity data for various compounds of this invention, which are shown by compound No. in Tables 1-14, are shown in Tables 16 and 17.

[2] = test system: green foxtail (Setaria viridis, SETVI); test: Pre-emerge greenhouse herbicide test; settings: 250 g ai/ha, 14 days after application, scale 0-100 (0 no damage, 100 complete death)
Text: as §1, §2, §3, §4, §5

[3] = test system: ivyleaf morningglory (Ipomoea hederacea, IPOHE); test: Pre-emerge greenhouse herbicide test; settings: 250 g ai/ha, 14 days after application, scale 0-100 (0 no damage, 100 complete death)
Text: as §1, §2, §3, §4, §5

[4] = test system: lambsquarters (Chenopodium album, CHEAL); test: Pre-emerge greenhouse herbicide test; settings: 250 g ai/ha, 14 days after application, scale 0-100 (0 no damage, 100 complete death)
Text: as §1, §2, §3, §4, §5

[5] = test system: large crabgrass (Digitaria sanguinalis, DIGSA); test: Pre-emerge greenhouse herbicide test; settings: 250 g ai/ha, 14 days after application, scale 0-100 (0 no damage, 100 complete death)
Text: as §1, §2, §3, §4, §5

[6] = test system: redroot pigweed (Amaranthus retroflexus, AMARE); test: Pre-emerge greenhouse herbicide test; settings: 250 g ai/ha, 14 days after application, scale 0-100 (0 no damage, 100 complete death)
Text: as §1, §2, §3, §4, §5

[7] = test system: sicklepod (Cassia obtusifolia, CASOB); test: Pre-emerge greenhouse herbicide test; settings: 250 g ai/ha, 14 days after application, scale 0-100 (0 no damage, 100 complete death)
Text: as §1, §2, §3, §4, §5

[8] = test system: velvetleaf (Abutilon theophrasti, ABUTH); test: Pre-emerge greenhouse herbicide test; settings: 250 g ai/ha, 14 days after application, scale 0-100 (0 no damage, 100 complete death)
Text: as §1, §2, §3, §4, §5

[9] = test system: field corn (Zea mays L., var. Dekalb 527, CORN); test: Pre-emerge greenhouse crop damage test; settings: pre-emerge, 250 g ai/ha, 14 days after application, scale 0-100 (0 no damage, 100 complete death)
Text: as §1, §2, §3, §4, §5

[10] = test system: soybean (Glycine max L., var. Pella 86, SOY); test: Pre-emerge greenhouse crop damage test; settings: pre-emerge, 250 g ai/ha, 14 days after application, scale 0-100 (0 no damage, 100 complete death)
Text: as §1, §2, §3, §4, §5

[11] = test system: upland rice (Ory0a sp., var.Tebonnet, RICE); test: Pre-emerge greenhouse crop damage test; settings: pre-emerge, 250 g ai/ha, 14 days after application, scale 0-100 (0 no damage, 100 complete death)
Text: as §1, §2, §3, §4, §5

[12] = test system: barnyardgrass (Echinochloa crus-galli, ECHCG); test: Post-emerge greenhouse herbicide test; settings: 250 g ai/ha, 14 days after application
Text: as §1, §2, §3, §4, §5

[13] = test system: green foxtail (Setaria viridis, SETVI); test: Post-emerge greenhouse herbicide test; settings: 250 g ai/ha, 14 days after application
Text: as §1, §2, §3, §4, §5

[14] = test system: ivyleaf morningglory (Ipomoea hederacea, IPOHE); test: Post-emerge greenhouse herbicide test; settings: 250 g ai/ha, 14 days after application
Text: as §1, §2, §3, §4, §5

[15] = test system: johnsongrass (Sorghum halepense, SORHA); test: Post-emerge greenhouse herbicide test; settings: 250 g ai/ha, 14 days after application
Text: as §1, §2, §3, §4, §5

[16] = test system: lambsquarters (Chenopodium album, CHEAL); test: Post-emerge greenhouse herbicide test; settings: 250 g ai/ha, 14 days after application
Text: as §1, §2, §3, §4, §5

[17] = test system: large crabgrass (Digitaria sanguinalis, DIGSA); test: Post-emerge greenhouse herbicide test; settings: 250 g ai/ha, 14 days after application
Text: as §1, §2, §3, §4, §5

[18] = test system: redroot pigweed (Amaranthus retroflexus, AMARE); test: Post-emerge greenhouse herbicide test; settings: 250 g ai/ha, 14 days after application
Text: as §1, §2, §3, §4, §5

[19] = test system: sicklepod (Cassia obtusifolia, CASOB); test: Post-emerge greenhouse herbicide test; settings: 250 g ai/ha, 14 days after application
Text: as §1, §2, §3, §4, §5

[20] = test system: velvetleaf (Abutilon theophrasti, ABUTH); test: Post-emerge greenhouse herbicide test; settings: 250 g ai/ha, 14 days after application
Text: as §1, §2, §3, §4, §5

[21] = test system: field corn (Zea mays L., var. Dekalb 527, CORN); test: Post-emerge greenhouse crop damage test; settings: 250 g ai/ha, post-emerge, 14 days after application
Text: as §1, §2, §3, §4, §5

[22] = test system: soybean (Glycine max L., var. Pella 86, SOY); test: Post-emerge greenhouse crop damage test; settings: in vivo
Text: as §1, §2, §3, §4, §5

[23] = test system: upland rice (Ory0a sp., var.Tebonnet, RICE); test: Post-emerge greenhouse crop damage test; settings: 250 g ai/ha, post-emerge, 14 days after application
Text: as §1, §2, §3, §4, §5

SMILES: CCc1nc2c(N3C(=O)C4CCCCN4C3=S)c(F)cc(Cl)c2o1 (single isomer, unassigned) [Compound 7-5, 8-(7-Chloro-2-ethyl-5-fluorobenzoxazol-4-yl)-1,8-diazobicyclo[4,3,0]nonane-7-one-9-thione]
- Pre-emerge Herbicidal Activity ECHCG (phytotoxicity rating) [1]: 0
- Pre-emerge Herbicidal Activity SETVI (phytotoxicity rating) [2]: 0
- Pre-emerge Herbicidal Activity IPOHE (phytotoxicity rating) [3]: 0
- Pre-emerge Herbicidal Activity CHEAL (phytotoxicity rating) [4]: 60
- Pre-emerge Herbicidal Activity DIGSA (phytotoxicity rating) [5]: 0
- Pre-emerge Herbicidal Activity AMARE (phytotoxicity rating) [6]: 50
- Pre-emerge Herbicidal Activity CASOB (phytotoxicity rating) [7]: 0
- Pre-emerge Herbicidal Activity ABUTH (phytotoxicity rating) [8]: 30
- Pre-emerge Herbicidal Activity CORN (crop damage rating) [9]: 0
- Pre-emerge Herbicidal Activity SOY (crop damage rating) [10]: 0
- Pre-emerge Herbicidal Activity RICE (crop damage rating) [11]: 0
- Post-emerge Herbicidal Activity ECHCG (phytotoxicity rating 0-100) [12]: 0
- Post-emerge Herbicidal Activity SETVI (phytotoxicity rating 0-100) [13]: 60
- Post-emerge Herbicidal Activity IPOHE (phytotoxicity rating 0-100) [14]: 100
- Post-emerge Herbicidal Activity SORHA (phytotoxicity rating 0-100) [15]: 0
- Post-emerge Herbicidal Activity CHEAL (phytotoxicity rating 0-100) [16]: 100
- Post-emerge Herbicidal Activity DIGSA (phytotoxicity rating 0-100) [17]: 10
- Post-emerge Herbicidal Activity AMARE (phytotoxicity rating 0-100) [18]: 100
- Post-emerge Herbicidal Activity CASOB (phytotoxicity rating 0-100) [19]: 100
- Post-emerge Herbicidal Activity ABUTH (phytotoxicity rating 0-100) [20]: 100
- Post-emerge crop damage CORN (phytotoxicity rating 0-100) [21]: 20
- Post-emerge crop damage SOY (phytotoxicity rating 0-100) [22]: 80
- Post-emerge crop damage RICE (phytotoxicity rating 0-100) [23]: 10
